In patent US20200131180A1, “POSITIVE ALLOSTERIC MODULATORS OF THE MUSCARINIC ACETYLCHOLINE RECEPTOR M1” (Vanderbilt University, priority 2018, published 2020):

Target: T1, human mAChR M1 (Homo sapiens, UniProt P11229)
T1 sequence (P11229 1-460): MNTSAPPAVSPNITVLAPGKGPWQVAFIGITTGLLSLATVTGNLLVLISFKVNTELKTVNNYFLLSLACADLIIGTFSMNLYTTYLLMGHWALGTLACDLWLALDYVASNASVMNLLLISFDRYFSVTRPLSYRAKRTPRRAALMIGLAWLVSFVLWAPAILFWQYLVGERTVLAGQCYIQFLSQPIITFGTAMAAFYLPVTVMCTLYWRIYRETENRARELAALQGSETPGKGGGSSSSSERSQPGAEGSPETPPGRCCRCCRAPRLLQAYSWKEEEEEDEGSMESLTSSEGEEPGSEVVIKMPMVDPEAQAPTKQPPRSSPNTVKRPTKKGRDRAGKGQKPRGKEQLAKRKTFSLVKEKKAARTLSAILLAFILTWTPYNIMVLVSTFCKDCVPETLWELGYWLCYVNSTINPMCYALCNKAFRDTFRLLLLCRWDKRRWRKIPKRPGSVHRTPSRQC
Assay: mAChR M1 cell-based functional assay (calcium mobilization, PAM activity)
Conditions: CHO-K1 cells expressing hM1, calcium flux (Fluo-4); for EC50: concentration-dependent increase in the EC20 acetylcholine response; for Emax: potentiation of EC20 acetylcholine response
Source text: Chinese hamster ovary (CHO-K1) cells stably expressing rat (r)M1 were purchased from the American Type Culture Collection and cultured according to their indicated protocol. CHO cells stably expressing human (h)M2, hM3, and hM5 were described previously (Levey, et al., 1991); hM1 and hM4 cDNAs were purchased from Missouri S&T cDNA Resource; rM4 cDNA was provided by T. I. Bonner (National Institutes of Health, Bethesda, Md.). rM2 and rM3 were cloned from a rat brain cDNA library and sequence verified. hM1, rM2, rM3, hM4, and rM4 cDNAs were used to stably transfect CHO-K1 cells purchased from the American Type Culture Collection using Lipofectamine 2000. To make stable rM2, hM2, rM3, hM4, and rM4 cell lines for use in calcium mobilization assays, these cells also were stably transfected with a chimeric G-protein (Gqi5) (provided by B. R. Conklin, University of California, San Francisco) using Lipofectamine 2000. rM1, hM1, rM3, hM3, rM5, and hM5 cells were grown in Ham's F-12 medium containing 10% heat-inactivated fetal bovine serum (FBS), 20 mM HEPES, and 50 μg/mL G418 sulfate. rM2-Gqi5, hM2-Gqi5, and hM4-Gqi5 cells were grown in the same medium also containing 500 μg/mL Hygromycin B. Stable rM4-Gqi5 cells were grown in DMEM containing 10% heat-inactivated FBS, 20 mM HEPES, 400 μg/mL G418 sulfate, and 500 μg/mL Hygromycin B.
For high throughput measurement of agonist-evoked increases in intracellular calcium, CHO-K1 cells stably expressing muscarinic receptors were plated in growth medium lacking G418 and hygromycin at 15,000 cells/20 μL/well in Greiner 384-well black-walled, tissue culture (TC)-treated, clear-bottom plates (VWR). Cells were incubated overnight at 37° C. and 5% CO2. The next day, cells were washed using an ELX 405 (BioTek) with four washes (80 μL) of assay buffer then aspirated to 20 μL. Next, 20 μL of 16 μM Fluo-4/acetoxymethyl ester (Invitrogen, Carlsbad, Calif.) prepared as a 2.3 mM stock in DMSO and mixed in a 1:1 ratio with 10% (w/v) Pluronic F-127 and diluted in assay buffer was added to the wells and the cell plates were incubated for 50 min at 37° C. and 5% CO2. Dye was removed by washing with the ELX 405 (four 80 μL washes of assay buffer) then aspirated to 20 μL. Compound master plates were formatted in an 11 point CRC format (1:3 dilutions) in 100% DMSO with a starting concentration of 10 mM using the BRAVO liquid handler (Agilent). Test compound CRCs were then transferred to daughter plates (240 nL) using the Echo acoustic plate reformatter (Labcyte, Sunnyvale, Calif.) and then diluted into assay buffer (40 μL) to a 2× stock using a Thermo Fisher Combi (Thermo Fisher Scientific, Waltham, Mass.).
Calcium flux was measured using the Functional Drug Screening System (FDSS) 6000 (Hamamatsu Corporation, Tokyo, Japan) as an increase in the fluorescent static ratio. Compounds were applied to cells (20 μL, 2×) using the automated system of the FDSS 6000 at 4 s into the 300 s protocol and the data were collected at 1 Hz. At 144 s into the 300s protocol, 10 μL of an EC20 concentration of the muscarinic receptor agonist acetylcholine was added (5×), followed by the addition of 12 μL an EC80 concentration of acetylcholine at the 230 s time point (5×). Agonist activity was analyzed as a concentration-dependent increase in calcium mobilization upon compound addition. Emax values for agonist activity are expressed relative to the maximum for acetylcholine. Positive allosteric modulator activity was analyzed as a concentration-dependent increase in the EC20 acetylcholine response. Antagonist activity was analyzed as a concentration-dependent decrease in the EC80 acetylcholine response. Concentration-response curves were generated using a four-parameter logistical equation in XLfit curve fitting software (IDBS, Bridgewater, N.J.) for Excel (Microsoft, Redmond, Wash.) or Prism (GraphPad Software, Inc., San Diego, Calif.). […]

SMILES	EC50	Emax
Cn1ccc(-c2ccc(Cc3cc(C(=O)NC4CCOCC4)c4nccn4c3)cc2)n1 [compound 1, 6-[[4-(1-methylpyrazol-3-yl)phenyl]methyl]-N-tetrahydropyran-4-yl-imidazo[1,2-a]pyridine-8-carboxamide]	6340 nM	68%
Cn1ccc(-c2ccc(Cc3cc(C(=O)N[C@@H]4CCCC[C@H]4O)c4nccn4c3)cc2)n1 [compound 2, N-[(1R,2R)-2-hydroxycyclohexyl]-6-[[4-(1-methylpyrazol-3-yl)phenyl]methyl]imidazo[1,2-a]pyridine-8-carboxamide]	313 nM	77%
Cn1ccc(-c2ccc(Cc3cc(C(=O)NC4CC5(COC5)C4)c4nccn4c3)cc2)n1 [compound 3, 6-[[4-(1-methylpyrazol-3-yl)phenyl]methyl]-N-(2-oxaspiro[3.3]heptan-6-yl)imidazo[1,2-a]pyridine-8-carboxamide]	4290 nM	76%
Cn1ccc(-c2ccc(Cc3cc(C(=O)N[C@@H]4CCC[C@H]4O)c4nccn4c3)cc2)n1 [compound 4, N-[(1R,2R)-2-hydroxycyclopentyl]-6-[[4-(1-methylpyrazol-3-yl)phenyl]methyl]imidazo[1,2-a]pyridine-8-carboxamide]	1500 nM	80%
Cn1ccc(-c2ccc(Cc3cc(C(=O)N[C@@H]4CCOC[C@H]4O)c4nccn4c3)cc2)n1 [compound 5, N-[(3S,4R)-3-hydroxytetrahydropyran-4-yl]-6-[[4-(1-methylpyrazol-3-yl)phenyl]methyl]imidazo[1,2-a]pyridine-8-carboxamide]	384 nM	78%
Cn1ccc(-c2ccc(Cc3cc(C(=O)N[C@H]4CCOC[C@@H]4O)c4ncnn4c3)cc2)n1 [compound 6, N-[(3R,4S)-3-hydroxytetrahydropyran-4-yl]-6-[[4-(1-methylpyrazol-3-yl)phenyl]methyl]-[1,2,4]triazolo[1,5-a]pyridine-8-carboxamide]	790 nM	85%
Cn1ccc(-c2ccc(Cc3cc(C(=O)N[C@H]4CCCC[C@@H]4O)c4ncnn4c3)cc2)n1 [compound 7, N-[(1S,2S)-2-hydroxycyclohexyl]-6-[[4-(1-methylpyrazol-3-yl)phenyl]methyl]-[1,2,4]triazolo[1,5-a]pyridine-8-carboxamide]	483 nM	86%
Cn1ccc(-c2ccc(Cc3cc(C(=O)NC4CCOCC4)c4ncnn4c3)cc2)n1 [compound 8, 6-[[4-(1-methylpyrazol-3-yl)phenyl]methyl]-N-tetrahydropyran-4-yl-[1,2,4]triazolo[1,5-a]pyridine-8-carboxamide]		53%
Cn1ccc(-c2ccc(Cc3cc(C(=O)NC4CC5(COC5)C4)c4ncnn4c3)cc2)n1 [compound 9, 6-[[4-(1-methylpyrazol-3-yl)phenyl]methyl]-N-(2-oxaspiro[3.3]heptan-6-yl)-[1,2,4]triazolo[1,5-a]pyridine-8-carboxamide]	4860 nM	66%
Cn1ccc(-c2ccc(Cc3cc(C(=O)N[C@@H]4CC[C@H]4O)c4ncnn4c3)cc2)n1 [compound 10, N-[(1R,2R)-2-hydroxycyclobutyl]-6-[[4-(1-methylpyrazol-3-yl)phenyl]methyl]-[1,2,4]triazolo[1,5-a]pyridine-8-carboxamide]	4070 nM	74%
Cn1ccc(-c2ccc(Cc3cc(C(=O)N[C@H]4CCC[C@@H]4O)c4ncnn4c3)cc2)n1 [compound 11, N-[(1S,2S)-2-hydroxycyclopentyl]-6-[[4-(1-methylpyrazol-3-yl)phenyl]methyl]-[1,2,4]triazolo[1,5-a]pyridine-8-carboxamide]	2540 nM	88%
Cn1cc(-c2ccc(Cc3cc(C(=O)N[C@H]4CCOC[C@@H]4O)c4ncnn4c3)cn2)cn1 [compound 12, N-[(3R,4S)-3-hydroxytetrahydropyran-4-yl]-6-[[6-(1-methylpyrazol-4-yl)-3-pyridyl]methyl]-[1,2,4]triazolo[1,5-a]pyridine-8-carboxamide]	903 nM	83%
Cn1cc(-c2ccc(Cc3cc(C(=O)N[C@H]4CCCC[C@@H]4O)c4ncnn4c3)cn2)cn1 [compound 13, N-[(1S,2S)-2-hydroxycyclohexyl]-6-[[6-(1-methylpyrazol-4-yl)-3-pyridyl]methyl]-[1,2,4]triazolo[1,5-a]pyridine-8-carboxamide]	729 nM	84%
Cn1cc(-c2ccc(Cc3cc(C(=O)NC4CCOCC4)c4ncnn4c3)cn2)cn1 [compound 14, 6-[[6-(1-methylpyrazol-4-yl)-3-pyridyl]methyl]-N-tetrahydropyran-4-yl-[1,2,4]triazolo[1,5-a]pyridine-8-carboxamide]		45%
Cn1cc(-c2ccc(Cc3cc(C(=O)NC4CC5(COC5)C4)c4ncnn4c3)cn2)cn1 [compound 15, 6-[[6-(1-methylpyrazol-4-yl)-3-pyridyl]methyl]-N-(2-oxaspiro[3.3]heptan-6-yl)-[1,2,4]triazolo[1,5-a]pyridine-8-carboxamide]		65%
Cn1cc(-c2ccc(Cc3cc(C(=O)N[C@@H]4CC[C@H]4O)c4ncnn4c3)cn2)cn1 [compound 16, N-[(1R,2R)-2-hydroxycyclobutyl]-6-[[6-(1-methylpyrazol-4-yl)-3-pyridyl]methyl]-[1,2,4]triazolo[1,5-a]pyridine-8-carboxamide]		67%
Cn1cc(-c2ccc(Cc3cc(C(=O)N[C@H]4CCC[C@@H]4O)c4ncnn4c3)cn2)cn1 [compound 17, N-[(1S,2S)-2-hydroxycyclopentyl]-6-[[6-(1-methylpyrazol-4-yl)-3-pyridyl]methyl]-[1,2,4]triazolo[1,5-a]pyridine-8-carboxamide]	3770 nM	86%
O=C(N[C@H]1CCOC[C@@H]1O)c1cc(Cc2ccc(-n3cccn3)cc2)cc2ncnn12 [compound 18, N-[(3R,4S)-3-hydroxytetrahydropyran-4-yl]-7-[(4-pyrazol-1-ylphenyl)methyl]-[1,2,4]triazolo[1,5-a]pyridine-5-carboxamide]	4440 nM	81%
O=C(N[C@H]1CCCC[C@@H]1O)c1cc(Cc2ccc(-n3cccn3)cc2)cn2cnnc12 [compound 19, N-[(1S,2S)-2-hydroxycyclohexyl]-6-[(4-pyrazol-1-ylphenyl)methyl]-[1,2,4]triazolo[4,3-a]pyridine-8-carboxamide]	1710 nM	74%
O=C(N[C@H]1CCCC[C@@H]1O)c1cc(Cc2ccc(-n3cccn3)cc2)cc2ncnn12 [compound 20, N-[(1S,2S)-2-hydroxycyclohexyl]-7-[(4-pyrazol-1-ylphenyl)methyl]-[1,2,4]triazolo[1,5-a]pyridine-5-carboxamide]	1190 nM	82%
